Measurements as given in patent US20030224470A1, “Method of diagnosing statin myopathy” (priority 2002, published 2003).
Each block holds one compound with its values, some of them ahead of it.

Legend:
[1] = Muscular strength tests: hip abduction and flexion, Nicholas Manual Muscle Tester; format: in vivo, patients
From the text: (§1) The association of increased levels of 3MGA with statin myopathy was discovered in a study of four patients identified among the first 20 patients randomly assigned in an ongoing, unfunded, doubleblinded, crossover clinical trial that had been approved by an investigational review board. Patients who had muscle symptoms during statin therapy that resolved when they were not receiving statins for 2 weeks were recruited from a clinical research group. Eligible patients had to have normal creatine kinase levels while they were experiencing symptoms. End points were 1) whether patients could accurately identify blinded statin therapy, 2) standard measures of functional capacity and muscle strength, 3) standard measures of biochemical properties of blood, urine and muscle specimens and 4) analysis of muscle biopsy for pathology. The muscular strength tests during both placebo use and statin therapy included hip abduction and flexion measured by Nicholas Manual Muscle Tester (Lafayette Instrument Co., Lafayette, Ind.) The standard measures for biochemical alterations included blood, urine and muscle biopsy analysis for levels of endogenous factors and drug. Analysis of muscle biopsy for pathology included general histology of the samples and detection of various markers involved in metabolism.

[2] = Statin level in patients; format: in vivo
From the text: as §1
All four patients in the study had normal statin levels (TABLE 1).

[3] = Serum creatine kinase level during statin therapy; format: in vivo, patients; details: normal range 0-3.26 μkat/L
From the text: as §1
The creatine kinase level remained normal in these patients every time they became myopathic both before and during the trial. The presence of a normal creatine kinase level has previously been used to argue against myopathy in patients with muscle symptoms during statin therapy.

[4] = Muscle biopsy pathology (histology, metabolic markers); format: in vivo, patients; details: Patient 3; during atorvastatin therapy
From the text: as §1, with “metabolism. […]” for “metabolism.”

[5] = Clinical muscle symptoms during statin therapy; format: in vivo, patients
From the text: as §1

[6] = Urine organic acid analysis for 3-methylglutaconic acid (3MGA); format: in vivo, patients
[7] = Patient 3, Atorvastatin 20 mg/d
[8] = Patient 4, atorvastatin 10 mg/d
[9] = Patient 1, 4 years of simvastatin therapy, brief trial of atorvastatin
[10] = Patient 1, Cerivistatin 0.4 mg/d listed first
[11] = Patient 2, lovastatin 40 mg/d, simvastatin added to niacin

- Hip Abduction (Strength) On Statin [1, 7]: 6.3 kg
- Hip Flexion (Strength) On Statin [1, 7]: 14.3 kg
- Hip Abduction (Strength) On Statin [1, 8]: 12.9 kg
- Hip Flexion (Strength) On Statin [1, 8]: 24.1 kg
- Statin Level [2, 7]: 10.9 (Ator- ngEq/cm^3
- Creatine Kinase Level during Statin Therapy [3, 7]: 2.30 μkat/L
- Creatine Kinase Level during Statin Therapy ([3]; Patient 4, Atorvastatin 10 mg/d): 1.39 μkat/L
- Muscle symptoms during therapy [5, 9]: Symptoms did not change
- Muscle symptoms during therapy [5, 8]: leg aches when climbing stairs
- Time to onset of leg aches [5, 8]: ≤ 2 weeks
Structure (SMILES): CC(C)c1c(C(=O)Nc2ccccc2)c(-c2ccccc2)c(-c2ccc(F)cc2)n1CC[C@@H](O)C[C@@H](O)CC(=O)O [Atorvastatin]
- Muscle biopsy findings during therapy [4]: increased lipid droplets, ragged red fibers, and cytochrome oxidase—negative muscle fibers
- Muscle symptoms during therapy ([5]; Patient 3, atorvastatin 20 mg/d for 2 years): aching and weakness of the shoulder, hip, and thigh

- Hip Abduction (Strength) On Statin [1, 10]: 4.1 kg
- Hip Flexion (Strength) On Statin [1, 10]: 8.0 kg
- Creatine Kinase Level during Statin Therapy ([3]; Patient 1): 0.63 μkat/L
- 3-Methylglutaconic acid levels On Statin ([6]; Patient 1, normal range 0-9 mmol/mol creatinine): 21 mmol/mol
Structure (SMILES): COCc1c(C(C)C)nc(C(C)C)c(/C=C/[C@@H](O)C[C@@H](O)CC(=O)O)c1-c1ccc(F)cc1 [Cerivistatin]

- Hip Abduction (Strength) On Statin ([1]; Patient 2, Simvastatin 40 mg/d): 11.6 kg
- Hip Flexion (Strength) On Statin ([1]; Patient 2, Simvastatin 40 mg/d): 9.6 kg
- Statin Level ([2]; Patient 1): 1.4 (Sim- ngEq/cm^3
- Statin Level ([2]; Patient 2, Simvastatin 40 mg/d): 16.3 (Sim- ngEq/cm^3
- Creatine Kinase Level during Statin Therapy ([3]; Patient 2, Simvastatin 40 mg/d): 0.73 μkat/L
- 3-Methylglutaconic acid levels On Statin ([6]; Patient 2, Simvastatin 40 mg/d, normal range 0-9 mmol/mol creatinine): 11 mmol/mol
Structure (SMILES): CCC(C)(C)C(=O)O[C@H]1C[C@@H](C)C=C2C=C[C@H](C)[C@H](CC[C@@H]3C[C@@H](O)CC(=O)O3)[C@H]21 [Simvastatin]
- Muscle symptoms during therapy [5, 9]: muscle aches and decreased exercise tolerance
- Muscle symptoms during therapy [5, 11]: muscle aches, weakness, and shortness of breath with exertion

- Muscle symptoms during therapy [5, 11]: muscle pains and weakness
Structure (SMILES): CC[C@H](C)C(=O)O[C@H]1C[C@@H](C)C=C2C=C[C@H](C)[C@H](CC[C@@H]3C[C@@H](O)CC(=O)O3)[C@H]21 [lovastatin]
